Results: ChEMBL document CHEMBL1130846, “A new class of sulfoxide surfactants derived from Tris. Synthesis and preliminary assessments of their properties” (Bioorg Med Chem Lett, 1998)
In brackets after ≈: the same amount, converted by molar mass.

What was measured:
[1] = Water solubility was evaluated; format: ADME; conditions: read-out: Ws
Rattus norvegicus [2] = species on record: Rattus norvegicus; assay: Compound was evaluated for the amount of protein solubilized, expressed as percentage weight of freeze-dried microsomes (20 mg) of rat liver; format: functional
Rattus norvegicus [3] = species on record: Rattus norvegicus; assay: Compound was evaluated for the amount of protein solubilized, expressed as percentage weight of freeze-dried mitochondria (20 mg) of rat liver; format: functional, organism-based
Rattus norvegicus [4] = species on record: Rattus norvegicus; assay: Compound was evaluated for the amount of protein solubilized, expressed as percentage weight of freeze-dried nuclear membrane (100 mg) of rat liver; format: functional

solubility [1] [µg/mL] | SMILES | Weight (Rattus norvegicus [2]) [%] | Weight (Rattus norvegicus [3]) [%] | Weight (Rattus norvegicus [4]) [%]
85 (≈ 189 µM) | CCCCCCCCCCCCCCCC[S+]([O-])CCC(=O)NC(CO)(CO)CO (configuration not stated) | 58.4 | 58.6 | 45.7
> 10000 | CCCCCCCCCC[S+]([O-])CCC(=O)NC(CO)(CO)CO (configuration not stated) | 68.9 | 71 | 57.4
> 1500 | O=C(CC[S+]([O-])CCC(F)(F)C(F)(F)C(F)(F)C(F)(F)C(F)(F)C(F)(F)C(F)(F)C(F)(F)F)NC(CO)(CO)COC1O[C@H](CO)[C@H](O)[C@H](O)[C@H]1O (some centres not stated) | – | – | –
25 (≈ 37.2 µM) | O=C(CC[S+]([O-])CCC(F)(F)C(F)(F)C(F)(F)C(F)(F)C(F)(F)C(F)(F)C(F)(F)C(F)(F)F)NC(CO)(CO)CO (configuration not stated) | – | – | –
1200 (≈ 2100 µM) | O=C(CC[S+]([O-])CCC(F)(F)C(F)(F)C(F)(F)C(F)(F)C(F)(F)C(F)(F)F)NC(CO)(CO)CO (configuration not stated) | 32.6 | 30.3 | 25.5
> 10000 | O=C(CC[S+]([O-])CCC(F)(F)C(F)(F)C(F)(F)C(F)(F)C(F)(F)C(F)(F)F)NC(CO[C@H]1O[C@@H](CO)[C@@H](O)[C@@H](O)[C@@H]1O)(CO[C@@H]1O[C@H](CO)[C@H](O)[C@H](O)[C@H]1O)CO[C@@H]1O[C@H](CO)[C@H](O)[C@H](O)[C@H]1O (some centres not stated) | – | – | –
> 10000 | CCCCCCCC[S+]([O-])CCC(=O)NC(CO)(CO)CO (configuration not stated) | 71 | 69.8 | 55.5
– | CC(C)(C)CC(C)(C)c1ccc(OCCO)cc1 | 76.2 | 74.9 | 62.2
> 10000 | CCCCCCCCCCCC[S+]([O-])CCC(=O)NC(CO)(CO)CO[C@@H]1O[C@H](CO)[C@H](O)[C@H](O)[C@H]1O (some centres not stated) | – | – | –
> 6000 | CCCCCCCCCCCC[S+]([O-])CCC(=O)NC(CO)(CO)CO (configuration not stated) | 62.5 | 65.6 | 52.4
